US20240050463A1, “THERAPEUTIC COMPOSITIONS AND METHODS FOR TREATING HEPATITIS B” (ARBUTUS BIOPHARMA CORPORATION, priority 2016, published 2024)
Counter-ions that a name gives are not always drawn. Like-named read-outs stand apart in the source and are kept apart here.

Assays:
[1] = test system: HBsAg, D type HBV in primary human hepatocytes (PHH); assay: microbe, parasite or virus in culture; assay type: cell-based; details: Hepatitis B virus, Hepatocyte; for inhibition at 0.00012 µM: TDF 0.12 nM alone; for inhibition at 0.00037 µM: TDF 0.37 nM alone
Method: (§1) The mouse liver perfusion was applied to isolate PHHs. The isolated hepatocytes were further purified by Percoll. The cells were resuspended with culture media and seeded into the 96-well plates (6×10^4 cell/well) or 48-well plates (1.2×10^5 cell/well). The PHHs were infected with a D type HBV one day post seeding (day 1).
(§2) On day 2, the test compounds were diluted and added into the cell culture plates. The culture media containing the compounds were refreshed every other day. The cell culture supernatants were collected on day 8 for the HBV DNA and antigen determinations.
(§3) The compounds were tested at 7 concentrations, 3-fold dilution, in triplicate.
(§4) Two compounds were tested at 5×5 matrix, in triplicate plates.
(§5) HBsAg/HBeAg in the culture supernatants harvested on days 8 were measured by the HBsAg/HBeAg ELISA kit (Autobio) according to the manual. The samples were diluted with PBS to get the signal in the range of the standard curve. The inhibition rates were calculated with the formula below. The combination effect was analyzed by the MacSynergy software.
% Inh. HBsAg=[1−HBsAg quantity of sample/HBV quantity of DMSO control]×100.

[2] = test system: D type HBV in primary human hepatocytes (PHH); assay: HBV DNA in culture supernatants of HBV-infected primary human hepatocytes (qPCR), MacSynergy; assay type: cell-based; details: for inhibition at 0.00012 µM / inhibition at 0.00037 µM / inhibition at 0.00333 µM / inhibition at 0.01 µM: Hepatitis B virus, Hepatocyte; for inhibition at 0.00012 µM: TDF 0.12 nM alone; for inhibition at 0.00037 µM: TDF 0.37 nM alone; for inhibition at 0.00333 µM: TDF 3.33 nM alone; for inhibition at 0.01 µM: TDF 10.00 nM alone; for AVERAGE % INHIBITION: HBV DNA, COMPOUND 25 0.00 nM
Method: as §1, §2, §3, §4
DNA in the culture supernatants harvested on days 8 were isolated with QIAamp 96 DNA Blood Kit (Qiagen-51161). For each sample, 100 μl of the culture supernatants was used to extract DNA. The DNA was eluted with 100 μl, 150 μl or 180 μl of AE. HBV DNA in the culture supernatants was quantified by qPCR. The combination effect was analyzed by the MacSynergy software. The primers are described below.

[3] = test system: HBsAg secretion in HepG2.2.15 cells; assay: Inhibition of HBsAg in HepG2.2.15 cells (CLIA), checkerboard, MacSynergy II; assay type: cell-based, HBV (human hepatoblastoma HepG2 cells); details: for Additive % Inhibition (HBsAg) versus negative control: Trial 3
Method: In vitro combination studies were conducted using the method of Prichard and Shipman (Prichard M N, and Shipman C Jr., Antiviral Research, 1990, 14(4-5), 181-205; and Prichard M N, et. al., MacSynergy II). The HepG2.2.15 cell culture system is a cell line derived from human hepatoblastoma HepG2 cells that have been stably transfected with the adw2− subtype HBV genome as previously explained in Sells et al. (Proc. Natl. Acad. Sci. U. S. A, 1987. Vol 84:1005-1009). HepG2.2.15 cells secrete Dane-like viral particles, produce HBV DNA, and also produce the viral proteins, hepatitis B e antigen (HBeAg) and hepatitis B surface antigen (HBsAg).
To test the compound combinations, HepG2.2.15 (30,000 cells/well) were plated in 96 well tissue-culture treated microtiter plates in RPMI+L-Glutamine medium supplemented with 1% penicillin-streptomycin, 20 μg/mL geneticin (G418), 10% fetal bovine serum, and incubated in a humidified incubator at 37° C. and 5% CO2 overnight. […] […] The microtiter cell plates were incubated for a duration of 6 days in a humidified incubator at 37° C. and 5% CO2.
Untreated positive control samples (0.5% DMSO in media) were included on each plate in multiple wells. Following a 6 day-incubation, media was removed from treated cells for use in an HBsAg chemiluminescence immunoassay (CLIA) (Autobio Diagnostics, Cat No. CL0310-2). An HBsAg standard curve was generated to verify that the levels of HBsAg quantification were within the detection limits of the assay. The remaining inhibitor-treated cells were assessed for cytotoxicity by determination of the intracellular adenosine triphosphate (ATP) using a Cell-Titer Glo reagent (Promega) as per manufacturers instructions and by microscopic analysis of the cells throughout the duration of inhibitor treatment. Cell viability was calculated as a percentage of the untreated positive control wells.
The plates were read using an EnVision multimode plate reader (PerkinElmer Model 2104). […] The RLU data from the single compound treated cells were analyzed using XL-Fit module in Microsoft Excel to determine EC50 values using a 4-parameter curve fitting algorithm.

[4] = test system: HBeAg, D type HBV in primary human hepatocytes (PHH); assay: microbe, parasite or virus in culture; assay type: cell-based; details: Hepatitis B virus, Hepatocyte, read-out: Inhibitor B EC50, HBeAg endpoint; determined in an earlier separate experiment
Method: as §1, §2, §3, §4, §5
% Inh. HBeAg=[1−HBeAg quantity of sample/HBV quantity of DMSO control]×100.

[5] = test system: HBV rcDNA in HepDE19 cells; assay: Inhibition of rcDNA in HepDE19 cells (bDNA assay), checkerboard, MacSynergy II; assay type: cell-based, HBV (human hepatoma cell line); design: key to ADDITIVE INHIBITION: % inhibition of rcDNA production; details: Compound 3 0 μM
Method: In vitro combination studies were conducted using the method of Prichard and Shipman (Prichard M N, and Shipman C Jr., Antiviral Research, 1990, 14(4-5), 181-205; and Prichard M N, et. al., MacSynergy II). HepDE19 cell culture system is a HepG2 (human hepatocarcinoma) derived cell line that supports HBV DNA replication and cccDNA formation in a tetracycline (Tet)-regulated manner and produces HBV rcDNA and a detectable reporter molecule dependent on the production and maintenance of cccDNA (Guo et al 2007. J. Virol 81:12472-12484). HepDE19 (50,000 cells/well) were plated in 96 well collagen-coated tissue-culture treated microtiter plates in DMEM/F12 medium supplemented with 10% fetal bovine serum, 1% penicillin-streptomycin and 1 μg/ml tetracycline and incubated in a humidified incubator at 37° C. and 5% CO2 overnight. Next day, the cells were switched to fresh medium without tetracycline and incubated for 4 hrs at 37° C. and 5% CO2. […] The two inhibitors were tested both singly as well as in combinations in a checkerboard fashion such that each concentration of inhibitor A was combined with each concentration of inhibitor B to determine their combination effects on inhibition of rcDNA production. Following a 7 day-incubation of cells with compound combinations, the level of rcDNA present in the inhibitor-treated wells was measured using a Quantigene 2.0 bDNA assay kit (Affymetrix, Santa Clara, CA) with HBV specific custom probe set and manufacturers instructions. […] The RLU data from the single compound treated cells were analyzed using XL-Fit module in Microsoft Excel to determine EC50 values using a 4-parameter curve fitting algorithm. Concurrently, the effect of compounds on cell viability was assessed using replicate plates, plated at a density of 5,000 cells/well and incubated for 4 days, to determine the ATP content as a measure of cell viability using the cell-titer glo reagent (CTG; Promega Corporation, Madison, WI) as per manufacturer's instructions.
In vitro combination studies were conducted using the method of Prichard and Shipman (Prichard M N, Shipman C, Jr., Antiviral Res, 14, 181-205 (1990)). The HepDE19 cell line was developed as described in Guo et al. (Guo et al., J Virol, 81, 12472-12484 (2007)). It is a human hepatoma cell line stably transfected with the HBV genome, and which can express HBV pregenomic RNA and support HBV rcDNA (relaxed circular DNA) synthesis in a tetracycline-regulated manner. HepDE19 cells were plated in 96 well tissue-culture treated microtiter plates in DMEM/F12 medium supplemented with 10% fetal bovine serum+1% penicillin-streptomycin without tetracycline and incubated in a humidified incubator at 37° C. and 5% CO2 overnight. […] The two inhibitors were tested both singly as well as in combinations in a checkerboard fashion such that each concentration of inhibitor A was combined with each concentration of inhibitor B to determine their combination effects on inhibition of rcDNA production. Following a 48 hour-incubation, the level of rcDNA present in the inhibitor-treated wells was measured using a bDNA assay (Affymetrix) with HBV specific custom probe set and manufacturers instructions. […] Concurrently, the effect of inhibitor combinations on cell viability was assessed using replicate plates that were used to determine the ATP content as a measure of cell viability using the Cell-TiterGlo reagent (Promega) as per manufacturer's instructions.
In vitro combination studies were conducted using the method of Prichard and Shipman (1990) (Prichard M N, Shipman C, Jr. 1990. A three-dimensional model to analyze drug-drug interactions. Antiviral Res 14:181-205 AND Prichard M N. 1992. MacSynergy II, University of Michigan).

[6] = read-out: Additive inhibition, HBsAg
[7] = read-out: Average % inhibition, HBsAg
[8] = read-out: Additive inhibition, HBV DNA
[9] = read-out: Average % inhibition, HBV DNA

CC(C)OC(=O)OCOP(=O)(CO[C@H](C)Cn1cnc2c(N)ncnc21)OCOC(=O)OC(C)C [TDF, tenofovir disoproxil fumarate]
inhibition at 0.00012 µM [1, 6]: -3.31%
inhibition at 0.00012 µM [1, 7]: -3.31%
inhibition at 0.00037 µM [1, 6]: -3.32%
inhibition at 0.00037 µM [1, 7]: -3.32%
inhibition at 0.00333 µM ([1]; read-out: Additive inhibition, HBsAg, TDF 3.33 nM alone): -1.28%
inhibition at 0.01 µM ([1]; read-out: Additive inhibition, HBsAg, TDF 10.00 nM alone): -6.65%
inhibition at 0.00333 µM ([1]; read-out: Average % inhibition, HBsAg, TDF 3.33 nM alone): -1.28%
inhibition at 0.01 µM ([1]; read-out: Average % inhibition, HBsAg, TDF 10.00 nM alone): -6.65%
inhibition at 0.00012 µM [2, 8]: -1.16%
inhibition at 0.00012 µM [2, 9]: -1.16%
inhibition at 0.00037 µM [2, 8]: -6.24%
inhibition at 0.00037 µM [2, 9]: -6.24%
inhibition at 0.00333 µM [2, 8]: 3.15%
inhibition at 0.00333 µM [2, 9]: 3.15%
inhibition at 0.01 µM [2, 8]: -15.4%
inhibition at 0.01 µM [2, 9]: -15.4%

COCCCOc1cc2c(cc1OC)-c1cc(=O)c(C(=O)O)cn1[C@H](C(C)C)C2 [Compound 5]
Additive % Inhibition (HBsAg) versus negative control ([3]; Compound 5 0.0001 μM alone): 69.99%
Additive % Inhibition (HBsAg) versus negative control ([3]; Compound 5 0.000316 μM alone): 82.39%
Additive % Inhibition (HBsAg) versus negative control ([3]; Compound 5 0.001 μM alone): 89.01%
Additive % Inhibition (HBsAg) versus negative control ([3]; Compound 5 0.00316 μM alone): 90.26%
Additive % Inhibition (HBsAg) versus negative control ([3]; Compound 5 0.1 μM alone): 86.26%
Additive % Inhibition (HBsAg) versus negative control ([3]; Compound 5 1.0E−05 μM alone): 46.36%
Additive % Inhibition (HBsAg) versus negative control ([3]; Compound 5 1.00E−06 μM alone): 22.68%
Additive % Inhibition (HBsAg) versus negative control ([3]; Compound 5 3.16E−06 μM alone): 34.18%
Additive % Inhibition (HBsAg) versus negative control ([3]; Compound 5 3.17E−05 μM alone): 56.34%
EC50 ([3]; Hepatitis B virus, HepG2.2.15, Trial 2, HBsAg by CLIA, read-out: Compound 5 EC50): 5 nM

CNC(=O)N[C@H]1CCOc2c(C(=O)Nc3ccc(F)c(F)c3)ccc(F)c21 [Compound 23]
EC50 [4]: 4.53 nM
EC50 ([1]; read-out: Inhibitor B EC50): 4.36 nM

CCOC(=O)C1=C(CN2CCOCC2)NC(c2nccs2)=NC1c1ccc(F)cc1Br (stereo not drawn) [GLS4]
ADDITIVE INHIBITION ([5]; GLS-4 0.007813 μM): −1.17
ADDITIVE INHIBITION ([5]; GLS-4 0.01563 μM): −5.82
ADDITIVE INHIBITION ([5]; GLS-4 0.03125 μM): 7.03
ADDITIVE INHIBITION ([5]; GLS-4 0.0625 μM): 38.95
ADDITIVE INHIBITION ([5]; GLS-4 0.125 μM): 77.82
ADDITIVE INHIBITION ([5]; GLS-4 0.25 μM): 94.65
ADDITIVE INHIBITION ([5]; GLS-4 0.5 μM): 97.48
ADDITIVE INHIBITION ([5]; GLS-4 1 μM): 98.51
ADDITIVE INHIBITION ([5]; GLS-4 2 μM): 98.22

O=C(Nc1ccc(F)c(F)c1)c1cc(S(=O)(=O)NC2CCCC2)ccc1F [Compound 22]
AVERAGE % INHIBITION ([2]; COMPOUND 22 61.73 nM): −11.75%
AVERAGE % INHIBITION ([2]; COMPOUND 22 185.19 nM): −9.12%
AVERAGE % INHIBITION ([2]; COMPOUND 22 555.56 nM): −12.7%
AVERAGE % INHIBITION ([2]; COMPOUND 22 1666.67 nM): 17.94%
AVERAGE % INHIBITION ([2]; COMPOUND 22 5000.00 nM): 63.06%
